Source: the OligoGym collection
“And” between values parts separate entries of the source, which are not always exact repeats. Equal entries are not always repeated. After the bases stand the sugars from the 5' end (letter, count) and the backbone: PS all phosphorothioate, else s phosphorothioate and o phosphodiester by linkage. Methylation of C is not given here. e = 2'-O-(2-methoxyethyl) (MOE); k = constrained ethyl (cEt); d = 2'-deoxy (DNA)

Target: IRF4
Conditions: ASO

Sequence | target mRNA inhibition (SK-MEL-28, 4 µM) | target mRNA inhibition (MM.1R, 1 µM)
AATGGAGCATCCGCTT (sugars k3 d10 k3, PS) | -7% | –
AATGTCACGCCCGCAA (sugars k3 d10 k3, PS) | 19% | –
AATGTGTATTACTCTT (sugars k3 d10 k3, PS) | – | 53% and 41%
AATGTGTATTACTCTT (sugars kkddddddddddkeke, PS) | – | 8% and 22%
AATTTTAAGGCCCTGT (sugars k3 d10 k3, PS) | 24% | –
ACAAAAACTTGGGTCA (sugars k3 d10 k3, PS) | – | -13%
ACAAAACGGACTGGAA (sugars k3 d10 k3, PS) | 14% | –
ACAAATTAAAGAGCGC (sugars k3 d10 k3, PS) | 64% | –
ACACAAGTCTTAGGTG (sugars k3 d10 k3, PS) | – | -153%
ACACAGGCTAATCAGA (sugars k3 d10 k3, PS) | 7% | –
ACACATTAAAGGGTAA (sugars k3 d10 k3, PS) | 11% | –
ACACATTTGAGAGCTA (sugars k3 d10 k3, PS) | 69% | –
ACACTTTTAGAGAGGA (sugars k2 d9 e3 k2, PS) | – | 21%
ACACTTTTAGAGAGGA (sugars kkdddddddddekeke, PS) | – | 41%
ACAGAAGGGCAACAGT (sugars k3 d10 k3, PS) | 43% | –
ACAGAGGTGGGAGTAC (sugars k3 d10 k3, PS) | -74% | –
ACAGGAGCCGCTACAG (sugars k3 d10 k3, PS) | 31% | –
ACAGGCGCGGACGCAC (sugars k3 d10 k3, PS) | 20% | –
ACAGTCCACTCCACCC (sugars k3 d10 k3, PS) | – | 14%
ACAGTGACTTGCATCC (sugars kkddddddddddkeke, PS) | – | 30%
ACAGTGACTTGCATCC (sugars kkdddddddddekeke, PS) | – | 9%

Sequence | target mRNA inhibition (SK-MEL-28, 4 µM) | target mRNA inhibition (MM.1R, 1 µM)
ACATATTCAATGCACC (sugars k3 d10 k3, PS) | 47% | –
ACATTAAAGGGTAAGC (sugars k3 d10 k3, PS) | – | -23%
ACATTACTAGATTGTA (sugars k3 d10 k3, PS) | 41% | –
ACATTGGTACGGGATT (sugars k3 d10 k3, PS) | – | 2%
ACCAAGAAATGCACCT (sugars k3 d10 k3, PS) | 57% | –
ACCAAGCTGGGTTTGC (sugars k3 d10 k3, PS) | 53% | –
ACCAATGGCAGCACCG (sugars k3 d10 k3, PS) | 61% | –
ACCACAAGCAGTGATG (sugars k3 d10 k3, PS) | – | 1%
ACCACGCCCCTCTCCA (sugars k3 d10 k3, PS) | 9% | –
ACCCACATAACTCAGG (sugars k3 d10 k3, PS) | 31% | –
ACCCACATCACTGTCT (sugars k3 d10 k3, PS) | 15% | –
ACCGAACACACCAGGT (sugars k3 d10 k3, PS) | – | -14%
ACCTACAAAATGCCTC (sugars k3 d10 k3, PS) | 42% | –
ACCTACCTGCCCTTGG (sugars k3 d10 k3, PS) | 28% | –
ACCTCAGTTTGTGAAG (sugars k3 d9 k3 e1, PS) | – | 10%
ACCTCAGTTTGTGAAG (sugars kddddddddddkekek, PS) | – | 18%
ACCTCAGTTTGTGAAG (sugars kdddddddddkekeke, PS) | – | 16%
ACCTGGCAACCATTTT (sugars k3 d10 k3, PS) | 4% | –
ACGAACGCGCAAAACC (sugars k3 d10 k3, PS) | 6% | –
ACGACAGCTGCGGAGC (sugars k3 d10 k3, PS) | 27% | –
ACGAGGTAAATCTTCA (sugars k3 d10 k3, PS) | 61% | –
